# Values of other authors in patent EP2343054A1, “Pellets and microparticles of pravastatin sodium and a process of making them” (LEK Pharmaceuticals d.d., priority 2010, dated 2011).
# Columns and labels:
# [1] = pH of 7.0
# [2] = pH 3 or less, as found in the stomach
average oral absorption [%],absolute bioavailability (oral) [%],partition coefficient (octanol/water) [1],stability at low pH [2],Structure (SMILES)
34,17,–,–,"CC[C@H](C)C(=O)O[C@H]1C[C@H](O)C=C2C=C[C@H](C)[C@H](CC[C@@H](O)C[C@@H](O)CC(=O)O)[C@H]21 [pravastatin, (+)-(3R, 5R) -3,5-dihydroxy-7-[(1 S, 2S, 6S, 8S, 8aR)-6-hydroxy-2-methyl-8-[(S)-2-methylbutyryloxy]-1,2,6,7,8,8a-hexahydro-1-naphthyl] heptanoate]"
–,–,0.23,very unstable,CC[C@H](C)C(=O)O[C@H]1C[C@H](O)C=C2C=C[C@H](C)[C@H](CC[C@@H](O)C[C@@H](O)CC(=O)O)[C@H]21 [Pravastatin sodium]
